Experimental data: US12102644B2, “Compounds and methods of promoting myelination” (Case Western Reserve University, priority 2019, dated 2024)
“Also recorded” adds a separate entry of the source.

Tests used:
rat CYP51 [1] = target: T1, rat CYP51 (Rattus norvegicus, UniProt Q64654); conditions: rat CYP51 enzymatic activity
T1 sequence (Q64654 1-503): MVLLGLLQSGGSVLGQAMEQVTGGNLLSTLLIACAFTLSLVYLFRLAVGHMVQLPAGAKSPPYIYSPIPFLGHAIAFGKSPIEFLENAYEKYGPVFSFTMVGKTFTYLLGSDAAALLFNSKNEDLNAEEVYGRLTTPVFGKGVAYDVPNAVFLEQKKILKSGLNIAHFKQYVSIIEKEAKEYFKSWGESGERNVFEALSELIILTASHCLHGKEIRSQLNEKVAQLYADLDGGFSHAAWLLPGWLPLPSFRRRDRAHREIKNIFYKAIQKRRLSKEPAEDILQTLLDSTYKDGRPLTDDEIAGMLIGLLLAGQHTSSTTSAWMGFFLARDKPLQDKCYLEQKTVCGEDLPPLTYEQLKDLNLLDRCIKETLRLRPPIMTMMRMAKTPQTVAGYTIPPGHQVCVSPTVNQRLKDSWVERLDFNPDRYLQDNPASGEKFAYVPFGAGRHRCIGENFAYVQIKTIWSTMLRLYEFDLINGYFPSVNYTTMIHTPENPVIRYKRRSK

[2] = tested on: mouse epiblast stem cell-derived OPCs; experiment: In vitro OPC differentiation assay (percentage of MBP+ oligodendrocytes, high-content imaging); type: cell-based; conditions: for formation of MBP+ oligodendrocytes from OPCs / formation of MBP+ oligodendrocytes in combination with ketoconazole: 72 h; for formation of MBP+ oligodendrocytes from OPCs: differentiation-permissive conditions; for formation of MBP+ oligodendrocytes in combination with ketoconazole: co-treatment with ketoconazole 2.5 μM
Procedure: To rigorously assess effects of small molecule and genetic treatments on OPCs, all treatments were assayed in two batches of epiblast stem cell-derived OPCs, and key results were confirmed using mouse primary OPCs. OPCs were generated from two separate EpiSC lines, EpiSC5 (giving rise to OPC-5 OPCs) and 12901 (giving rise to OPC-1 OPCs). EpiSC-derived OPCs were obtained using in vitro differentiation protocols and culture conditions described previously. To ensure uniformity throughout all in vitro screening experiments, EpiSC-derived OPCs were sorted to purity by fluorescence activated cell sorting at passage five with conjugated CD 140a-APC (eBioscience, 17-1401; 1:80) and NG2-AF488 (Millipore, AB[…]; 1:100) antibodies. Sorted batches of OPCs were expanded and frozen down in aliquots. OPCs were thawed into growth conditions for one passage before use in further assays. Cultures were regularly tested and shown to be mycoplasma free. EpiSC-derived OPCs were grown and expanded in poly-ornithine (PO) and laminin-coated flasks with growth medium (DMEM/F12 supplemented with N2-MAX (R&D Systems), B-27 (ThermoFisher), GlutaMax (Gibco), FGF2 ([…], R&D systems, 233-FB-025) and PDGF-AA ([…], R&D systems, 233-AA-050) before harvesting for plating. The cells were seeded onto poly-D-[…]-well CellCarrier plates (PerkinElmer) coated with laminin (Sigma, L2020; 15 μg/ml) using multi-channel pipet. For the experiment, 800,000 cells/mL stock in differentiation medium (DMEM/F12 supplemented with N2-MAX and B-27) was prepared and stored on ice for 2 h. Then, 40,000 cells were seeded per well in differentiation medium and allowed to attach for 30 min before addition of drug. For dose-response testing of all molecules except sterols, a 1000× compound stock in dimethyl sulphoxide (DMSO) was added to assay plates with 0.1 μL solid pin multi-blot replicators (V & P Scientific; VP 409), resulting in a final primary screening concentration of 1×. Sterols were added to cells as an ethanol solution (0.2% final ethanol concentration). Positive control wells (ketoconazole, 2.5 μM) and DMSO vehicle controls were included in each assay plate. Cells were incubated under standard conditions (37° C., 5% CO2) for 3 days and fixed with 4% paraformaldehyde (PFA) in phosphate buffered saline (PBS) for 20 min. Fixed plates were washed with PBS (200 μL per well) twice, permeabilized with 0.1% Triton X-100 and blocked with 10% donkey serum (v/v) in PBS for 40 min. Then, cells were labelled with MBP antibodies (Abcam, ab7349; 1:200) for 16 h at 4° C. followed by detection with Alexa Fluor conjugated secondary antibodies (1:500) for 45 min. Nuclei were visualized by DAPI staining (Sigma; 1 μg/ml). During washing steps, PBS was added using a multi-channel pipet and aspiration was performed using Biotek EL406 washer dispenser (Biotek) equipped with a 96-well aspiration manifold. Plates were imaged on the Operetta High Content Imaging and Analysis system (PerkinElmer) and a set of 6 fields captured from each well resulting in an average of 1200 cells being scored per well. Analysis (PerkinElmer Harmony and Columbus software) began by identifying intact nuclei stained by DAPI; that is, those traced nuclei that were larger than 300 μm^2 in surface area. Each traced nucleus region was then expanded by 50% and cross-referenced with the […] (MBP) stain to identify oligodendrocyte nuclei, and from this the percentage of oligodendrocytes was calculated. In some experiments, the total process length of MBP^+ oligodendrocytes was calculated as previously described.

NR2C2 = experiment: NR2C2-mediated NGFI-A promoter luciferase reporter; type: cell-based; conditions: 2,2-dimethylzymosterol 5 μM
Procedure: (§1) FIGS. 6(A-D) illustrate images and graphs showing the effect of 8,9-unsaturated sterols on nuclear hormone receptors and SREBP2 activity: a) Luciferase reporter assays were used to assess if 2,2-Dimethylzymosterol (5 μM), Ketoconazole (2.5 μM), and TASIN-1 (250 nM) modulate human ERα, GR, LXRβ, NFkB, NRF2, PGR, PPARδ, PPARγ, RARα, RARγ, RXRα, RXRβ, TRα, TRβ and VDR transcriptional activity in agonist mode and ERRα, RORα and RORγ in inverse-agonist mode. […]

[3] = tested on: human ERα, GR, LXRβ, NFkB, NRF2, PGR, PPARδ, PPARγ, RARα, RARγ, RXRα, RXRβ, TRα, TRβ, VDR, ERRα, RORα and RORγ; experiment: Luciferase reporter assays for 18 nuclear hormone receptors; type: cell-based; conditions: 2,2-Dimethylzymosterol 5 μM, Ketoconazole 2.5 μM, TASIN-1 250 nM
Procedure: FIGS. 6(A-D) illustrate images and graphs showing the effect of 8,9-unsaturated sterols on nuclear hormone receptors and SREBP2 activity: a) Luciferase reporter assays were used to assess if 2,2-Dimethylzymosterol (5 μM), Ketoconazole (2.5 μM), and TASIN-1 (250 nM) modulate human ERα, GR, LXRβ, NFkB, NRF2, PGR, PPARδ, PPARγ, RARα, RARγ, RXRα, RXRβ, TRα, TRβ and VDR transcriptional activity in agonist mode and ERRα, RORα and RORγ in inverse-agonist mode. Measurements are shown as percentage of positive control, n=2 replicates per condition and n=3 replicates per condition for the controls. b) Effects of sterols (T-MAS 5 μM, FF-MAS 10 μM) and small molecules (Ketoconazole 2.5 μM, TASIN-1 100 nM) on the NR2F1-mediated activation of a NGFI-A promoter driven luciferase reporter in comparison to cells containing the reporter only (Ctrl.) or untreated. n=2 replicates per condition, with triplicate measurements per replicate. c) Effects of 2,2-dimethylzymosterol (5 μM) on the NR2C2 mediated activation of a NGFI-A promoter driven luciferase reporter in comparison to cells infected with reporter only, untreated, or treated with a previously reported positive control (all-trans retinoic acid, ATRA, 5 μM). n=2 replicates per condition, with triplicate measurements per replicate. d) LSS, DHCR7, LDLR mRNA levels measured by RT-qPCR following 24 h treatment with DMSO, Mevastatin (2.5 μM), Ro 48-8071 (500 nM), Ketoconazole (2.5 μM), TASIN-1 (100 nM), or Amorolfine (100 nM). n=2 replicates, with triplicate qPCR measurements per replicate. Experiments in panels b-d are representative of two indpedendent experiments.

[4] = tested on: EpiSC-derived OPCs on microfibers; experiment: Oligodendrocyte formation on electrospun microfibers; type: cell-based, mouse; conditions: 14 days
Procedure: A 12-well plate containing Mimetex aligned scaffold (microfiber plate, AMSBIO, AMS.TECL-006-1X, Electrospun poly-L-lactide Scaffold, […] cell crown inserts) was prepared as previously described. Briefly, inserts were sterilized with 70% ethanol and washed with PBS before being coated with polyornithine and laminin. After laminin coating, 100,000 cells/mL of EpiSC-derived OPCs were plated in differentiation medium. After 24 h the media was replaced with fresh media containing small molecule treatments. Every 48 h the media was replaced with fresh compound containing media for a total of 14 days. Plates were fixed with 4% PFA, permeabilized with 0.1% Triton X-100, and blocked with 10% donkey serum (v/v) in PBS for 60 min. Plates were stained for MBP (Abcam, ab7349; 1:100) and DAPI staining (Sigma; 5 μg/ml). After staining, the inserts were moved into new 12-well plate and covered with 2 mL of PBS before imaging in Operetta high content Imaging and analysis system. Plates were imaged on the Operetta High Content Imaging and Analysis system (PerkinElmer) and a set of 8 fields captured from each well resulting in an average of 45,000 cells being scored per well. Analysis (PerkinElmer Harmony and Columbus software) identified intact nuclei stained by DAPI and calculated the MBP signal intensity per cell per well. Microfiber insert tracking images were taken using a Leica DMi8 with a 20× Dry/NA 0.40 objective. Microfiber plate inserts were mounted using Flouromount-G (SouthernBiotech) and allowed to partially harden before coverslips were added and the insert ring was removed. Confocal images were obtained on a Leica SP8 confocal scanning microscope, with 40× oil/NA 1.30 objective. Confocal stacks of 0.336 μm z-steps were taken at 1024×1024. Each fluorophore was excited sequentially and all contrast and brightness changes were applied consistently between images.

NR2F1 = experiment: NR2F1-mediated NGFI-A promoter luciferase reporter; type: cell-based; conditions: Ketoconazole 2.5 μM, TASIN-1 100 nM
Procedure: as §1

EBP = target: T2, EBP (Mus musculus, UniProt P70245); experiment: EBP enzymatic assay (GC/MS); type: biochemical; conditions: small molecules 10 μM, zymostenol 25 μM, 2 h
T2 construct: active EBP was obtained from mouse microsomes; from tissue
T2 sequence (P70245 1-230): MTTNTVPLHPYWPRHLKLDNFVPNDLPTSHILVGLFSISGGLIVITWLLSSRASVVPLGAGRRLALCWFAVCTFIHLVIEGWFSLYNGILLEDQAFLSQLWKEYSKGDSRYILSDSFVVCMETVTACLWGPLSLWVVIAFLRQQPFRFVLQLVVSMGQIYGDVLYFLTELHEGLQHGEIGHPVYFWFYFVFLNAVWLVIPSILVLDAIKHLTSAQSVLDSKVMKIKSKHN

rat CYP51 [5] = target: T1, rat CYP51; experiment: biochemical
[6] = tested on: sterol levels in OPCs (cholesterol biosynthesis pathway); experiment: GC/MS-based sterol profiling in OPCs; type: cell-based, mouse; conditions: 24 h treatment
LPC-lesioned spinal cord = experiment: LPC focal demyelination of spinal cord, remyelination histology; type: in vivo, mouse; conditions: ifenprodil 10 mg per kg or tamoxifen 2 mg per kg, daily i.p., 8 days from day 4 after lesion

CC(=O)N1CCN(c2ccc(OC[C@H]3CO[C@@](Cn4ccnc4)(c4ccc(Cl)cc4Cl)O3)cc2)CC1 (stereo in doubt) [S-trans-Ketoconazole]
inhibition of mammalian CYP51 in vitro (rat CYP51 [1]): strikingly less effective at inhibiting mammalian CYP51

CC(C)=CCC[C@@H](C)[C@H]1CC[C@H]2C3=C(CC[C@]12C)[C@@]1(C)CC(C)(C)[C@H](O)C[C@@H]1CC3 [2,2-dimethylzymosterol]
formation of MBP+ oligodendrocytes from OPCs [2]: maximally potent enhancers of oligodendrocyte formation among the 8,9-unsaturated sterols tested
EC50 ([2]; OPC-5 and OPC-1, 72 h, read-out: EC50 for enhancing oligodendrocyte formation): 1000 to 2000 nM
formation of MBP+ oligodendrocytes in combination with ketoconazole [2]: no further benefit over ketoconazole alone
NR2C2-mediated reporter activation (NR2C2): ineffective
agonist activity in NHR reporter assays [3]: no molecule showed significant agonist activity in any assay

COc1ccc(S(=O)(=O)N2CCC(N3CCC(C)CC3)CC2)cc1 [TASIN-1]
MBP+ oligodendrocyte tracking along and wrapping of microfibers [4]: significantly enhanced MBP+ oligodendrocyte tracking along and wrapping of the microfibers
formation of MBP+ oligodendrocytes from OPCs [2]: enhanced formation of MBP^+ oligodendrocytes
NR2F1-mediated reporter activation (NR2F1): ineffective
inhibition of EBP enzymatic activity (EBP): clear inhibition
agonist activity in NHR reporter assays [3]: no molecule showed significant agonist activity in any assay

CCC(C)(C)c1ccc(CC(C)CN2C[C@@H](C)O[C@@H](C)C2)cc1 (stereo partly drawn) [amorolfine, Amorolfine]
MBP+ oligodendrocyte tracking along and wrapping of microfibers [4]: significantly enhanced MBP+ oligodendrocyte tracking along and wrapping of the microfibers
formation of MBP+ oligodendrocytes from OPCs [2]: enhanced formation of MBP^+ oligodendrocytes

OC(Cn1cncn1)(Cn1cncn1)c1ccc(F)cc1F [fluconazole, Fluconazole]
inhibition of mammalian CYP51 in vitro (rat CYP51 [1]): did not inhibit mammalian CYP51 in vitro

CC(=O)N1CCN(c2ccc(OCC3COC(Cn4ccnc4)(c4ccc(Cl)cc4Cl)O3)cc2)CC1 (stereo not drawn) [ketoconazole, Ketoconazole]
MBP+ oligodendrocyte tracking along and wrapping of microfibers [4]: significantly enhanced MBP+ oligodendrocyte tracking along and wrapping of the microfibers
formation of MBP+ oligodendrocytes from OPCs [2]: enhanced formation of MBP^+ oligodendrocytes
IC50 (rat CYP51 [5]): 300 to 700 nM
NR2F1-mediated reporter activation (NR2F1): ineffective
agonist activity in NHR reporter assays [3]: no molecule showed significant agonist activity in any assay

CC/C(=C(\c1ccccc1)c1ccc(OCCN(C)C)cc1)c1ccccc1 [tamoxifen, Tamoxifen]
formation of MBP+ oligodendrocytes from OPCs [2]: enhance the formation of oligodendrocytes with comparable potency
formation of MBP+ oligodendrocytes in combination with ketoconazole [2]: did not enhance differentiation above levels seen for ketoconazole alone
accumulation of sterol intermediates in OPCs (enzyme inhibition in OPCs, e.g. EBP) [6]: induced accumulation of zymostenol and zymosterol and decreased basal sterol levels; also recorded: inhibit EBP in OPCs
inhibition of EBP enzymatic activity (EBP): clear inhibition
remyelination of LPC lesion (LPC-lesioned spinal cord): remyelination was widespread throughout the lesion
